Measured values from patent publication US11466025B2, “Thienopyridine derivatives containing unsaturated aliphatic olefinic bond, preparation method and use thereof” (Tianjin Institute of Pharmaceutical Research Co., Ltd., priority 2017, dated 2022).
Where two headings read alike, the source gives them in different places.

Legend:
[1] = system: platelet aggregation induced by ADP; assay: Test of inhibitory effect of compounds on platelet aggregation in rats (ex vivo, ADP-induced, after intragastric administration); design: species or system SD rats; details: rats; for Inhibition rate (%): platelet aggregation, control = 100%; for Aggregation rate (%): 2 h after administration, ADP 20 uM
Protocol: Test of Inhibitory Effect of Compounds on Platelet Aggregation in Rats Healthy male SD rats were selected and randomly divided into solvent control group, positive drug control group and test compound group. Intragastric administration was carried out, with the administration volume being 10 ml/kg˜bw. […] The platelet count was adjusted to 5×10^8 cells/ml with PPP.

[2] = 1 μM
Protocol: Plasma samples (double sample) containing 1 μM of the compounds of the present invention, clopidogrel hydrogen sulfate (LBGL), 2-oxo product (2-Oxo) were prepared from human blank plasma, and incubated at 37° C. 50 μL of the above incubated plasma samples were taken at different time points, and 100 μL of precipitant (acetonitrile:methanol=7:3) and 50 μL of internal standard were added. The mixture was vortexed for 1 min and centrifuged for 10 min. 100 μL of the supernatant was taken into an inner inserted tube, centrifuged for 5 min, and injected for LC-MS/MS analysis.
Preparation of blank control sample (PPT-0): 100 μL of frozen human blank plasma was taken, to which 195 μL of acetonitrile and 100 μL of internal standard were added, followed by 5 μL of the compound of the present invention, clopidogrel or 2-oxo product (20 μM). The mixture was vortexed for 1 min and centrifuged for 10 min. 100 μL of the supernatant was taken into an inner inserted tube, centrifuged for 5 min, and injected for LC-MS/MS analysis.

beagle dogs = assay: Safety evaluation in single dosing; type: in vivo; details: intragastric single dose of 2 g/kg
Protocol: Safety Evaluation of Compounds I-1 and I-2 in Single Dosing: The test consisted of a physiological control group, a solvent control group, and two administration groups, with 4 animals in each group, half of which were male and the other half of which were female. The animals were intragastrically administered with the test compounds at a single dose of 2 g/kg. The solvent control group was administered with an equal volume of the blank solvent. Animals were daily observed for various conditions during the test. ECG examinations were performed before administration, 1 h after administration, and 7 and 14 days after administration. Hematological and blood biochemical tests were performed before administration and 1, 7 and 12 days after administration.

Q: Which ED50 ([1]; Rattus norvegicus, inhibition of ADP-induced platelet aggregation, oral administration, read-out: ED50) does the source give for C/C=C/C=C/C(=O)Oc1cc2c(s1)CCN([C@H](C(=O)OC)c1ccccc1Cl)C2 [Compound I-2, Methyl (S)-2-(2-chlorophenyl)-2-(2-((2E,4E)-2,4-hexadienoyloxy)-6,7-dihydrothieno[3,2-c]pyridin-5(4H)-yl)-acetate] here?
A: 1.58 mg/kg

Q: And the “Inhibition rate (%)” value ([1]; intragastric 0.75 mg/kg)?
A: 7.0%

Q: What about the “Inhibition rate (%)” value ([1]; intragastric 1.5 mg/kg) of the same compound?
A: 50.8%

Q: What about the “Inhibition rate (%)” value ([1]; intragastric 3 mg/kg) of the same compound?
A: 85.8%

Q: What about the “Aggregation rate (%)” value ([1]; intragastric 0.75 mg/kg) of the same compound?
A: 55.8 ± 13.9%

Q: And the “Aggregation rate (%)” value ([1]; intragastric 1.5 mg/kg)?
A: 29.6 ± 8.7 %

Q: What about the “Aggregation rate (%)” value ([1]; intragastric 3 mg/kg) of the same compound?
A: 8.5 ± 9.4 %

Q: And the “2-Oxo metabolite concentration in human plasma” value (shortened to “2-Oxo metabolite concentration”) ([2]; 0 min)?
A: 0.0192 µM

Q: What about the “2-Oxo metabolite in human plasma, %” value ([2]; 0 min) of the same compound?
A: 1.74%

Q: And the “Concentration of incubated compound in human plasma” value (“Concentration of incubated compound” for short) ([2]; 0 min)?
A: 1110 nM

Q: And the “Incubated compound in human plasma, %” value ([2]; 0 min)?
A: 100%

Q: And the “Generation of 2-oxo (2-Oxo) product in human plasma” value [2]?
A: rapidly generate 2-oxo products

Q: And the “2-Oxo metabolite concentration” value ([2]; 5 min)?
A: 0.0246 µM

Q: What about the “2-Oxo metabolite in human plasma, %” value ([2]; 5 min) of the same compound?
A: 2.23%

Q: And the “Concentration of incubated compound” value ([2]; 5 min)?
A: 1030 nM

Q: And the “Incubated compound in human plasma, %” value ([2]; 5 min)?
A: 93.5%

Q: What about the “2-Oxo metabolite concentration” value ([2]; 10 min) of the same compound?
A: 0.0319 µM

Q: What about the “2-Oxo metabolite in human plasma, %” value ([2]; 10 min) of the same compound?
A: 2.89%

Q: What about the “Concentration of incubated compound” value ([2]; 10 min) of the same compound?
A: 1030 nM

Q: What about the “Incubated compound in human plasma, %” value ([2]; 10 min) of the same compound?
A: 92.8%

Q: And the “2-Oxo metabolite concentration” value ([2]; 20 min)?
A: 0.0449 µM

Q: And the “2-Oxo metabolite in human plasma, %” value ([2]; 20 min)?
A: 4.06%

Q: And the “Concentration of incubated compound” value ([2]; 20 min)?
A: 1070 nM

Q: What about the “Incubated compound in human plasma, %” value ([2]; 20 min) of the same compound?
A: 97.1%

Q: And the “2-Oxo metabolite concentration” value ([2]; 30 min)?
A: 0.0493 µM

Q: What about the “2-Oxo metabolite in human plasma, %” value ([2]; 30 min) of the same compound?
A: 4.46%

Q: What about the “Concentration of incubated compound” value ([2]; 30 min) of the same compound?
A: 957 nM

Q: And the “Incubated compound in human plasma, %” value ([2]; 30 min)?
A: 86.6%

Q: And the “2-Oxo metabolite concentration” value ([2]; 45 min)?
A: 0.0522 µM

Q: What about the “2-Oxo metabolite in human plasma, %” value ([2]; 45 min) of the same compound?
A: 4.72%

Q: What about the “Concentration of incubated compound” value ([2]; 45 min) of the same compound?
A: 927 nM

Q: What about the “Incubated compound in human plasma, %” value ([2]; 45 min) of the same compound?
A: 83.9%

Q: What about the “2-Oxo metabolite concentration” value ([2]; 60 min) of the same compound?
A: 0.0521 µM

Q: What about the “2-Oxo metabolite in human plasma, %” value ([2]; 60 min) of the same compound?
A: 4.71%

Q: What about the “Concentration of incubated compound” value ([2]; 60 min) of the same compound?
A: 849 nM

Q: What about the “Incubated compound in human plasma, %” value ([2]; 60 min) of the same compound?
A: 76.8%

Q: And the “2-Oxo metabolite concentration” value ([2]; 90 min)?
A: 0.0481 µM

Q: What about the “2-Oxo metabolite in human plasma, %” value ([2]; 90 min) of the same compound?
A: 4.35%

Q: What about the “Concentration of incubated compound” value ([2]; 90 min) of the same compound?
A: 705 nM

Q: And the “Incubated compound in human plasma, %” value ([2]; 90 min)?
A: 63.8%

Q: What about the “2-Oxo metabolite concentration” value ([2]; 120 min) of the same compound?
A: 0.0457 µM

Q: And the “2-Oxo metabolite in human plasma, %” value ([2]; 120 min)?
A: 4.14%

Q: And the “Concentration of incubated compound” value ([2]; 120 min)?
A: 695 nM

Q: And the “Incubated compound in human plasma, %” value ([2]; 120 min)?
A: 62.9%

Q: What about the “2-Oxo metabolite concentration” value ([2]; 150 min) of the same compound?
A: 0.0445 µM

Q: And the “2-Oxo metabolite in human plasma, %” value ([2]; 150 min)?
A: 4.03%

Q: What about the “Concentration of incubated compound” value ([2]; 150 min) of the same compound?
A: 516 nM

Q: And the “Incubated compound in human plasma, %” value ([2]; 150 min)?
A: 46.7%

Q: What about the “2-Oxo metabolite concentration” value ([2]; 180 min) of the same compound?
A: 0.0388 µM

Q: And the “2-Oxo metabolite in human plasma, %” value ([2]; 180 min)?
A: 3.51%

Q: What about the “Concentration of incubated compound” value ([2]; 180 min) of the same compound?
A: 475 nM

Q: What about the “Incubated compound in human plasma, %” value ([2]; 180 min) of the same compound?
A: 43.0%

Q: What about the “2-Oxo metabolite concentration” value ([2]; 240 min) of the same compound?
A: 0.0331 µM

Q: And the “2-Oxo metabolite in human plasma, %” value ([2]; 240 min)?
A: 3.00%

Q: And the “Concentration of incubated compound” value ([2]; 240 min)?
A: 332 nM

Q: What about the “Incubated compound in human plasma, %” value ([2]; 240 min) of the same compound?
A: 30.0%

Q: What about the “2-Oxo metabolite concentration” value ([2]; 300 min) of the same compound?
A: 0.0294 µM

Q: And the “2-Oxo metabolite in human plasma, %” value ([2]; 300 min)?
A: 2.66%

Q: And the “Concentration of incubated compound” value ([2]; 300 min)?
A: 231 nM

Q: And the “Incubated compound in human plasma, %” value ([2]; 300 min)?
A: 20.9%

Q: And the “2-Oxo metabolite concentration” value ([2]; 360 min)?
A: 0.0236 µM

Q: And the “2-Oxo metabolite in human plasma, %” value ([2]; 360 min)?
A: 2.14%

Q: What about the “Concentration of incubated compound” value ([2]; 360 min) of the same compound?
A: 164 nM

Q: And the “Incubated compound in human plasma, %” value ([2]; 360 min)?
A: 14.8%

Q: And the “ECG examinations, hematological tests and serum biochemical tests” value (beagle dogs)?
A: no obvious abnormalities

Q: What about the “Activities, mental condition and diet” value (beagle dogs; administration and observation period) of the same compound?
A: normal activities, good mental condition, and normal diet
